Measured values: US11324706B2, “Composition for inhibiting growth of breast cancer stem cells containing phenylacetaldehyde” (JEJU NATIONAL UNIVERSITY INDUSTRY-ACADEMIC COOPERATION …, priority 2016, dated 2022)

Tested on: ALDH-positive cell populations of MDA-MB-231 cells
Test: ALDEFLUOR assay
Assay type: cell-based, human
Details: MDA-MB-231, PAA 0.1 mM
Procedure: MDA-MB-231 cells were treated with PAA (0.1 mM) or DMSO, and then subjected to ALDEFLUOR assay and FACS analysis. A top panel represents, as a negative control group, an ALDH-positive cell treated with an ALDH inhibitor, DEAB, and a bottom panel represents an ALDH-positive cell not treated with DEAB. An ALDH-positive population was represented by a box;
An ALDEFLUOR assay system provides a novel approach regarding identification, evaluation and separation of CSCs based on activity of aldehyde dehydrogenase (ALDH). BODIPY-aminoacetaldehyde was added as an active reagent to breast cancer cells and converted into fluorescent BODIPY-aminoacetate by aldehyde dehydrogenase (ALDH). An ALDH inhibitor, i.e., diethylaminobenzaldehyde (DEAB), was used as a negative control group. MCF-7 cells were treated with 200 μM of PAA for 24 hours, and the rate of ALDH-positive cells was analyzed by ALDEFLUOR assay. ALDH positive and negative cells were classified by flow cytometry (Accuri C6, BD, San Diego, Calif., USA).

With `O=CCc1ccccc1` [PAA, phenylacetaldehyde] the “proportion of ALDH-positive breast cancer cells” value was 0.1%.
